Literature values in patent US20220047724A1, “NOVEL TRICARBOCYANINE-CYCLODEXTRIN(S) CONJUGATES AND USE THEREOF” (CYANAGEN S.R.L., priority 2014, published 2022).
Read-outs that look alike come from different tables or passages of the source.

Tests used:
[1] = Sigma-Aldrich Product No. H-107, vendor data

Row | Substance | Water solubility [1] [g/100 mL] | Toxicity (mice; mouse, in vivo) | Toxicity (rabbits; rabbit, in vivo) | Toxicity (mice; mice) | Toxicity (rabbits; rabbits)
1 | 2-hydroxypropyl-β-cyclodextrin [HβCD] | 45 | non-toxic | non-toxic | – | –
2 | 2-hydroxypropyl-γ-cyclodextrin [HγCD] | – | – | – | non-toxic | non-toxic
